IC50 data for 13 compounds are collected here from patent US20100056524A1, “Compound” (priority 2008, published 2010).

Structures are written as SMILES. Structures can show the parent of a compound that is named as a salt. Some results are limits rather than exact numbers.

The assay concerns the target T1, TBK1 (Homo sapiens, UniProt Q9UHD2).
T1 construct: All protein kinases were of human origin and encoded full length proteins, unless indicated otherwise; His6; made in house; host or cells: insect Sf21 cells
T1 sequence (Q9UHD2 1-729): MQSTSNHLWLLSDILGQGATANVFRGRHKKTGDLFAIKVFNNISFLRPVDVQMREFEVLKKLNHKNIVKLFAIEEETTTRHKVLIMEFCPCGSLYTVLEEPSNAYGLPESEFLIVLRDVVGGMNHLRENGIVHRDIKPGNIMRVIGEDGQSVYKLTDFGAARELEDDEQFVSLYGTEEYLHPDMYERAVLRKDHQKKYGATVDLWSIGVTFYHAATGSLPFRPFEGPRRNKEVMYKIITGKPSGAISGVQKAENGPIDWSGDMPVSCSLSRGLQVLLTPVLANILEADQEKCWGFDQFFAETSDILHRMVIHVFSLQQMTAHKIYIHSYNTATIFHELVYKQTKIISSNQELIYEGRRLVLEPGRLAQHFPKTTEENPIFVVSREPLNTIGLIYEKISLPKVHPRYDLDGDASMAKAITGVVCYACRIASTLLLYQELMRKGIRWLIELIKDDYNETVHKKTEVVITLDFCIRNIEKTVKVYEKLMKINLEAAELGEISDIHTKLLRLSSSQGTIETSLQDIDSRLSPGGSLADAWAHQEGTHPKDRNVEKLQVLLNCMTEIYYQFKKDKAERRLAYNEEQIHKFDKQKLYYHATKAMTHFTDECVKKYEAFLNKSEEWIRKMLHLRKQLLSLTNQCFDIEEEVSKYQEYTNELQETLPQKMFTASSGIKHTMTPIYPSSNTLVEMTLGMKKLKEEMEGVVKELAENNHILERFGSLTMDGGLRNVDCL
The experiment in a line: TBK1 protein kinase assay ([γ-33P]ATP, P81 filterplates). Type of assay: biochemical. Conditions: 50 μM ATP; read-out: Potency (TBK1 IC50 potency score). In short, it runs like this: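 Human TBK1 assayed for 30 min with peptide substrate (300 μM), 50 μM [γ-33P]ATP and 10 mM magnesium acetate in 50 mM Tris/HCl pH 7.5, 0.1 mM EGTA, 0.1% 2-mercaptoethanol. Stopped with orthophosphoric acid and counted on P81 filters. IC50 from 10 compound concentrations.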

A word on the IC50: it is the point on the concentration scale where inhibition reaches its midpoint. Turning to `O=C(NCCCNc1nc(Nc2ccc3cnn(C4CC4)c3c2)ncc1C1CC1)C1CCC1` [Example 211, Cyclobutanecarboxylicacid{3-[5-cyclopropyl-2-(1-cyclopropyl-1H-indazol-6-ylamino)-pyrimidin-4-ylamino]-propyl}-amide], the 50% inhibitory concentration (IC50) was under 100 nM. For `O=C(NCCCNc1nc(Nc2cccc(N3CCOCC3)c2)ncc1C1CC1)c1cccs1` [Example 46, Thiophene-2-carboxylic acid {3-[5-cyclopropyl-2-(3-morpholin-4-yl-phenylamino)-pyrimidin-4-ylamino]-propyl}-amide trifluoroacetic acid salt] the value was 100 to 1000 nM; for `CC1(C)CCN(CCCNc2nc(Nc3cccc(F)c3)ncc2C2CC2)C1=O` [Example 113, 1-{3-[5-Cyclopropyl-2-(3-fluoro-phenylamino)-pyrimidin-4-ylamino]-propyl}-3,3-dimethyl-pyrrolidin-2-one], 100 to 1000 nM.

`O=C(NCCCNc1nc(Nc2cccc(OC(F)(F)F)c2)ncc1C1CC1)c1cccs1` [Example 35, Thiophene-2-carboxylic acid {3-[5-cyclopropyl-2-(3-trifluoromethoxy-phenylamino)-pyrimidin-4-ylamino]-propyl}-amide trifluoroacetic acid salt]: the IC50 lay within 100 to 1000 nM. The figure for `O=C(NCCCNc1nc(Nc2ccc(N3CCCCC3)nc2)ncc1C1CC1)C1CCC1` [Example 150, Cyclobutanecarboxylic acid {3-[5-cyclopropyl-2-(3,4,5,6-tetrahydro-2H-[1,2′]bipyridinyl-5′-ylamino)-pyrimidin-4-ylamino]-propyl}-amide] is under 100 nM; for `O=C(O)Cc1cccc(Nc2ncc(C3CC3)c(NCCCNC(=O)C3CCC3)n2)c1` [Example 95, (3-{4-[3-(Cyclobutanecarbonyl-amino)-propylamino]-5-cyclopropyl-pyrimidin-2-ylamino}-phenyl)-acetic acid. Hydrochloride] it is under 100 nM; for `O=C(NCCCNc1nc(Nc2ccc3cn[nH]c3c2)ncc1C1CC1)C1CCC1` [Example 129, Cyclobutanecarboxylic acid {3-[5-cyclopropyl-2-(1H-indazol-6-ylamino)-pyrimidin-4-ylamino]-propyl}-amide. Hydrochloride] it is under 100 nM. For `Cn1ncc2cc(Nc3ncc(C4CC4)c(NCCCNC(=O)C4CCC4)n3)cnc21` [Example 200, Cyclobutanecarboxylic acid {3-[5-cyclopropyl-2-(1-methyl-1H-pyrazolo[3,4-b]pyridin-5-ylamino)-pyrimidin-4-ylamino]-propyl}-amide] the value was under 100 nM; for `CC(C)(c1cccc(Nc2ncc(C3CC3)c(NCCCNC(=O)C3CCC3)n2)c1)N1CCOCC1` [Example 145, Cyclobutanecarboxylic acid (3-{5-cyclopropyl-2-[3-(1-methyl-1-morpholin-4-yl-ethyl)-phenylamino]-pyrimidin-4-ylamino}-propyl)-amide], under 100 nM. For `O=C(NCCCNc1nc(Nc2cccc(-n3cncn3)c2)ncc1C1CC1)C1CCC1` [Example 86, Cyclobutanecarboxylic acid (3-{5-cyclopropyl-2-[3-(2H-1,2,4-triazol-1-yl)-phenylamino]-pyrimidin-4-ylamino}-propyl)-amide] the value was under 100 nM; for `O=C(NCCCNc1nc(Nc2ccc(OC3CCN(C4CC4)CC3)nc2)ncc1C1CC1)C1CCC1` [Example 188, Cyclobutanecarboxylic acid (3-{5-cyclopropyl-2-[6-(1-cyclopropyl-piperidin-4-yloxy)-pyridin-3-ylamino]-pyrimidin-4-ylamino}-propyl)-amide], under 100 nM. For `O=C(NCCCNc1nc(Nc2cnc(N3CCOCC3)nc2)ncc1C1CC1)C1CCC1` [Example 152, Cyclobutanecarboxylic acid {3-[5-cyclopropyl-2-(2-morpholin-4-yl-pyrimidin-5-ylamino)-pyrimidin-4-ylamino]-propyl}-amide], the IC50 was under 100 nM.

On to `O=C(NCCCOc1nc(Nc2cccc(F)c2)ncc1C1CC1)C1CCC1` [Example 105], for which the concentration for half-maximal inhibition (IC50) fell in the range of 100 to 1000 nM.
